Experimental data taken from the supplement of paper PMC10883282.
± gives the standard deviation of the averaged measurements.

Tests used:
Assay in all cases: relative viability vs DMSO control (72 h) (fraction); higher = more viable cells
VA-ES-BJ = system: VA-ES-BJ
Summary of the method: (§1)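 Sarcoma cell lines were grown in 384-well plates seeded toward 80–90% confluence and exposed 24 h later to serially diluted compound. After 72 h at 37 °C and 5% CO2, with 0.1% DMSO vehicle and a 5 µM positive control on the plates, ATPLite was read. Relative viability, given as percent growth averaged over up to triplicate wells, was rescaled so that 1 is full and 0 is none.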

SK-LMS-1 = system: SK-LMS-1
Summary of the method: as §1

SW982 = system: SW982
Summary of the method: as §1

MES-SA = system: MES-SA
Summary of the method: as §1

SW1353 = system: SW1353
Summary of the method: as §1

SK-ES-1 = system: SK-ES-1
Summary of the method: as §1

RD-ES = system: RD-ES
Summary of the method: as §1

G401 = system: G401
Summary of the method: as §1

HT1080 = system: HT1080
Summary of the method: as §1

KHOS-240S = system: KHOS-240S
Summary of the method: as §1

SYO-1 = system: SYO-1
Summary of the method: as §1

RD = system: RD
Summary of the method: as §1

SMILES: C[C@@H]1CN(C(=O)c2ccc(NC(=O)c3cc(O[C@H](C)c4c(Cl)ccc(F)c4Cl)c(N)nn3)cc2)C[C@H](C)N1 [Ensartinib]
- relative viability (VA-ES-BJ; 0.00017 µM): 1.05 ± 0.033
- relative viability (VA-ES-BJ; 0.00051 µM): 1.02 ± 0.034
- relative viability (VA-ES-BJ; 0.00152 µM): 1.03 ± 0.042
- relative viability (VA-ES-BJ; 0.00457 µM): 1.03 ± 0.062
- relative viability (VA-ES-BJ; 0.01372 µM): 1.06 ± 0.061
- relative viability (VA-ES-BJ; 0.04115 µM): 1.05 ± 0.031
- relative viability (VA-ES-BJ; 0.1235 µM): 1.02 ± 0.054
- relative viability (VA-ES-BJ; 0.3704 µM): 0.855 ± 0.031
- relative viability (VA-ES-BJ; 1.111 µM): 0.662 ± 0.042
- relative viability (VA-ES-BJ; 3.333 µM): 0.489 ± 0.011
- relative viability (VA-ES-BJ; 10 µM): 0.362 ± 0.017
- relative viability (SK-LMS-1; 0.00017 µM): 0.995 ± 0.018
- relative viability (SK-LMS-1; 0.00051 µM): 0.9982 ± 0.0072
- relative viability (SK-LMS-1; 0.00152 µM): 1.01 ± 0.022
- relative viability (SK-LMS-1; 0.00457 µM): 1.04 ± 0.039
- relative viability (SK-LMS-1; 0.01372 µM): 1.03 ± 0.0051
- relative viability (SK-LMS-1; 0.04115 µM): 1.02 ± 0.017
- relative viability (SK-LMS-1; 0.1235 µM): 1.01 ± 0.061
- relative viability (SK-LMS-1; 0.3704 µM): 0.83 ± 0.024
- relative viability (SK-LMS-1; 1.111 µM): 0.656 ± 0.031
- relative viability (SK-LMS-1; 3.333 µM): 0.53 ± 0.0076
- relative viability (SK-LMS-1; 10 µM): 0.0598 ± 0.0024
- relative viability (SW982; 0.00017 µM): 0.966 ± 0.046
- relative viability (SW982; 0.00051 µM): 0.95947 ± 0.00092
- relative viability (SW982; 0.00152 µM): 0.986 ± 0.043
- relative viability (SW982; 0.00457 µM): 0.973 ± 0.025
- relative viability (SW982; 0.01372 µM): 0.97 ± 0.019
- relative viability (SW982; 0.04115 µM): 0.965 ± 0.052
- relative viability (SW982; 0.1235 µM): 0.982 ± 0.017
- relative viability (SW982; 0.3704 µM): 0.855 ± 0.039
- relative viability (SW982; 1.111 µM): 0.513 ± 0.021
- relative viability (SW982; 3.333 µM): 0.206 ± 0.012
- relative viability (SW982; 10 µM): 0.009967 ± 5.8e-05
- relative viability (MES-SA; 0.00017 µM): 0.921 ± 0.064
- relative viability (MES-SA; 0.00051 µM): 0.896 ± 0.057
- relative viability (MES-SA; 0.00152 µM): 0.938 ± 0.029
- relative viability (MES-SA; 0.00457 µM): 0.929 ± 0.029
- relative viability (MES-SA; 0.01372 µM): 0.932 ± 0.025
- relative viability (MES-SA; 0.04115 µM): 0.926 ± 0.048
- relative viability (MES-SA; 0.1235 µM): 0.961 ± 0.034
- relative viability (MES-SA; 0.3704 µM): 0.933 ± 0.035
- relative viability (MES-SA; 1.111 µM): 0.498 ± 0.016
- relative viability (MES-SA; 3.333 µM): 0.296 ± 0.0074
- relative viability (MES-SA; 10 µM): 0.1 ± 0.0096
- relative viability (SW1353; 0.00017 µM): 0.959 ± 0.049
- relative viability (SW1353; 0.00051 µM): 0.938 ± 0.025
- relative viability (SW1353; 0.00152 µM): 0.985 ± 0.013
- relative viability (SW1353; 0.00457 µM): 0.956 ± 0.029
- relative viability (SW1353; 0.01372 µM): 0.955 ± 0.049
- relative viability (SW1353; 0.04115 µM): 0.969 ± 0.024
- relative viability (SW1353; 0.1235 µM): 0.957 ± 0.045
- relative viability (SW1353; 0.3704 µM): 0.966 ± 0.026
- relative viability (SW1353; 1.111 µM): 0.955 ± 0.017
- relative viability (SW1353; 3.333 µM): 0.77 ± 0.012
- relative viability (SW1353; 10 µM): 0.0145 ± 0.0019
- relative viability (SK-ES-1; 0.00017 µM): 0.934 ± 0.081
- relative viability (SK-ES-1; 0.00051 µM): 0.966 ± 0.045
- relative viability (SK-ES-1; 0.00152 µM): 0.987 ± 0.027
- relative viability (SK-ES-1; 0.00457 µM): 1 ± 0.04
- relative viability (SK-ES-1; 0.01372 µM): 0.974 ± 0.012
- relative viability (SK-ES-1; 0.04115 µM): 0.972 ± 0.043
- relative viability (SK-ES-1; 0.1235 µM): 0.97 ± 0.068
- relative viability (SK-ES-1; 0.3704 µM): 0.857 ± 0.072
- relative viability (SK-ES-1; 1.111 µM): 0.457 ± 0.038
- relative viability (SK-ES-1; 3.333 µM): 0.0368 ± 0.0014
- relative viability (SK-ES-1; 10 µM): 0.00643 ± 0.0012
- relative viability (RD-ES; 0.00017 µM): 0.97 ± 0.035
- relative viability (RD-ES; 0.00051 µM): 0.951 ± 0.032
- relative viability (RD-ES; 0.00152 µM): 0.989 ± 0.042
- relative viability (RD-ES; 0.00457 µM): 0.963 ± 0.025
- relative viability (RD-ES; 0.01372 µM): 0.985 ± 0.038
- relative viability (RD-ES; 0.04115 µM): 0.974 ± 0.039
- relative viability (RD-ES; 0.1235 µM): 0.975 ± 0.029
- relative viability (RD-ES; 0.3704 µM): 0.826 ± 0.051
- relative viability (RD-ES; 1.111 µM): 0.567 ± 0.031
- relative viability (RD-ES; 3.333 µM): 0.0894 ± 0.0084
- relative viability (RD-ES; 10 µM): 0.00693 ± 0.00035
- relative viability (G401; 0.00017 µM): 0.954 ± 0.022
- relative viability (G401; 0.00051 µM): 0.983 ± 0.024
- relative viability (G401; 0.00152 µM): 0.98 ± 0.025
- relative viability (G401; 0.00457 µM): 0.9873 ± 0.0051
- relative viability (G401; 0.01372 µM): 1.01 ± 0.039
- relative viability (G401; 0.04115 µM): 1.019 ± 0.0048
- relative viability (G401; 0.1235 µM): 1.05 ± 0.055
- relative viability (G401; 0.3704 µM): 0.946 ± 0.018
- relative viability (G401; 1.111 µM): 0.771 ± 0.026
- relative viability (G401; 3.333 µM): 0.49 ± 0.018
- relative viability (G401; 10 µM): 0.0293 ± 0.0073
- relative viability (HT1080; 0.00017 µM): 1.02 ± 0.027
- relative viability (HT1080; 0.00051 µM): 1 ± 0.06
- relative viability (HT1080; 0.00152 µM): 0.993 ± 0.012
- relative viability (HT1080; 0.00457 µM): 1.03 ± 0.019
- relative viability (HT1080; 0.01372 µM): 1.03 ± 0.028
- relative viability (HT1080; 0.04115 µM): 0.9998 ± 0.0066
- relative viability (HT1080; 0.1235 µM): 1.04 ± 0.029
- relative viability (HT1080; 0.3704 µM): 1.04 ± 0.034
- relative viability (HT1080; 1.111 µM): 1.02 ± 0.045
- relative viability (HT1080; 3.333 µM): 0.837 ± 0.0086
- relative viability (HT1080; 10 µM): 0.0183 ± 0.0025
- relative viability (KHOS-240S; 0.00017 µM): 0.995 ± 0.041
- relative viability (KHOS-240S; 0.00051 µM): 1.02 ± 0.032
- relative viability (KHOS-240S; 0.00152 µM): 1.02 ± 0.052
- relative viability (KHOS-240S; 0.00457 µM): 1 ± 0.042
- relative viability (KHOS-240S; 0.01372 µM): 1.03 ± 0.023
- relative viability (KHOS-240S; 0.04115 µM): 1.02 ± 0.015
- relative viability (KHOS-240S; 0.1235 µM): 1.01 ± 0.012
- relative viability (KHOS-240S; 0.3704 µM): 0.994 ± 0.033
- relative viability (KHOS-240S; 1.111 µM): 0.847 ± 0.034
- relative viability (KHOS-240S; 3.333 µM): 0.579 ± 0.021
- relative viability (KHOS-240S; 10 µM): 0.135 ± 0.0057
- relative viability (SYO-1; 0.00017 µM): 1.02 ± 0.024
- relative viability (SYO-1; 0.00051 µM): 1.01 ± 0.036
- relative viability (SYO-1; 0.00152 µM): 1 ± 0.02
- relative viability (SYO-1; 0.00457 µM): 0.997 ± 0.015
- relative viability (SYO-1; 0.01372 µM): 1.02 ± 0.011
- relative viability (SYO-1; 0.04115 µM): 0.981 ± 0.013
- relative viability (SYO-1; 0.1235 µM): 0.927 ± 0.052
- relative viability (SYO-1; 0.3704 µM): 0.91 ± 0.025
- relative viability (SYO-1; 1.111 µM): 0.6316 ± 0.0033
- relative viability (SYO-1; 3.333 µM): 0.175 ± 0.011
- relative viability (SYO-1; 10 µM): -0.0432 ± 0.0066
- relative viability (RD; 0.00017 µM): 1.01 ± 0.032
- relative viability (RD; 0.00051 µM): 1.02 ± 0.053
- relative viability (RD; 0.00152 µM): 1.06 ± 0.034
- relative viability (RD; 0.00457 µM): 1.06 ± 0.065
- relative viability (RD; 0.01372 µM): 1.028 ± 0.01
- relative viability (RD; 0.04115 µM): 1.028 ± 0.0074
- relative viability (RD; 0.1235 µM): 0.972 ± 0.033
- relative viability (RD; 0.3704 µM): 0.9011 ± 0.0084
- relative viability (RD; 1.111 µM): 0.683 ± 0.03
- relative viability (RD; 3.333 µM): 0.561 ± 0.011
- relative viability (RD; 10 µM): 0.0738 ± 0.0066
